biological target: Melanocortin receptor 4 (Homo sapiens, UniProt P32245); assay: Displacement of [125I]NDP-MSH from human MC4R stably expressed in HEK293 cells; assay type: cell-based
Sequence (P32245 whole entry): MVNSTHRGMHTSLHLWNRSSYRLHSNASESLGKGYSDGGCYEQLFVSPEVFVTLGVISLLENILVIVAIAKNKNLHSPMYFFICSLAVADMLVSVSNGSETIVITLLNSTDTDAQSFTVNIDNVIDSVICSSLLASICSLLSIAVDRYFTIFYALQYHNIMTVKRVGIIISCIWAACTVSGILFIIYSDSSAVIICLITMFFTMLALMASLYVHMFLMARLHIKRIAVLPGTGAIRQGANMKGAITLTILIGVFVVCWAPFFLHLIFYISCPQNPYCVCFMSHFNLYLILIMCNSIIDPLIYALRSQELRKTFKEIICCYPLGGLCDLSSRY

| SMILES | Ki [nM] |
| --- | --- |
| CC(C)C[C@H](N)c1ccccc1N1CCN(C(=O)[C@H](C)Cc2ccc(Cl)cc2F)CC1 | 67 |
| CC(C)C[C@H](N)c1cc(C(F)(F)F)ccc1N1CCN(C(=O)CCC2CCCCC2)CC1 | 5700 |
| Cc1ccc(OCC(=O)N2CCN(c3ccc(C(F)(F)F)cc3[C@@H](N)CC(C)C)CC2)cc1 | 4400 |
| Cc1cc(Cl)ccc1C[C@@H](C)C(=O)N1CCN(c2ccccc2[C@H](N)CC(C)C)CC1 | 1700 |
| CC(C)C[C@H](N)c1cc(C(F)(F)F)ccc1N1CCN(C(=O)CNc2ccccc2)CC1 | 3600 |
| CC(C)C[C@H](N)c1cc(C(F)(F)F)ccc1N1CCN(C(=O)CCC(N)=O)CC1 | > 10000 |
| CC(C)C[C@H](N)c1cc(C(F)(F)F)ccc1N1CCN(C(=O)CCCC2CCCCC2)CC1 | 4100 |
| CC(C)C[C@H](N)c1cc(C(F)(F)F)ccc1N1CCN(C(=O)COc2ccccc2Cl)CC1 | 4500 |
| CC(C)C[C@H](N)c1cc(C(F)(F)F)ccc1N1CCN(C(=O)CCNC2CCCCC2)CC1 | 4800 |
| CC(C)C[C@H](N)c1cc(C(F)(F)F)ccc1N1CCN(C(=O)COc2ccc3ccccc3c2)CC1 | 2000 |
| COc1ccc(OCC(=O)N2CCN(c3ccc(C(F)(F)F)cc3[C@@H](N)CC(C)C)CC2)cc1 | 3800 |
| CC(C)C[C@H](N)c1ccccc1N1CCN(C(=O)[C@H](C)Cc2ccc(Cl)cc2)CC1 | 80 |
| CC(C)C[C@H](N)c1cc(C(F)(F)F)ccc1N1CCN(C(=O)COc2ccc(O)cc2)CC1 | 4600 |

The next lines start with the values.

| Ki [nM] | SMILES |
| --- | --- |
| 31 | CC(C)C[C@H](N)c1cc(C(F)(F)F)ccc1N1CCN(C(=O)[C@H](C)Cc2ccc(Cl)cc2)CC1 |
| 8.8 | Cc1ccc(N2CCN(C(=O)[C@H](C)Cc3ccc(Cl)cc3Cl)CC2)c([C@@H](N)CC(C)C)c1 |
| 38 | Cc1cc(Cl)ccc1CC(C)C(=O)N1CCN(c2ccc(C(F)(F)F)cc2[C@@H](N)CC(C)C)CC1 (stereo not given in full) |
| 47 | CC(C)C[C@H](N)c1cc(C(F)(F)F)ccc1N1CCN(C(=O)C(C)Cc2ccc(Cl)cc2)CC1 (stereo not given in full) |
| 120 | COc1ccc(CC(C)C(=O)N2CCN(c3ccc(C(F)(F)F)cc3[C@@H](N)CC(C)C)CC2)cc1 (stereo not given in full) |
| 120 | CC(C)C[C@H](N)c1cc(C(F)(F)F)ccc1N1CCN(C(=O)C(C)Cc2ccc(Cl)c(Cl)c2)CC1 (stereo in doubt; 8j) |
| 160 | COc1ccc(CC(C)C(=O)N2CCN(c3ccc(Cl)cc3[C@@H](N)CC(C)C)CC2)cc1 (stereo not given in full) |
| 4000 | Cc1ccc(OCC(=O)N2CCN(c3ccc(C(F)(F)F)cc3[C@@H](N)CC(C)C)CC2)c(C)c1 |
| 12 | Cc1cc(Cl)ccc1C[C@@H](C)C(=O)N1CCN(c2ccccc2[C@@H](N)CC(C)C)CC1 |
| 2200 | CCOc1cccc(CC(C)C(=O)N2CCN(c3ccc(C(F)(F)F)cc3[C@@H](N)CC(C)C)CC2)c1 (stereo not given in full) |
| 9.1 | COc1cc(Cl)ccc1CC(C)C(=O)N1CCN(c2ccc(Cl)cc2[C@@H](N)CC(C)C)CC1 (stereo not given in full) |
| 6.5 | COc1cc(Cl)ccc1C[C@@H](C)C(=O)N1CCN(c2ccc(C(F)(F)F)cc2[C@@H](N)CC(C)C)CC1 |
| 31 | COc1cc(Cl)ccc1C[C@H](C)C(=O)N1CCN(c2ccc(C(F)(F)F)cc2[C@@H](N)CC(C)C)CC1 |
| 2800 | CC(C)C[C@H](N)c1cc(C(F)(F)F)ccc1N1CCN(C(=O)Cc2ccc(Cl)cc2Cl)CC1 |
| 8.1 | COc1cc(Cl)ccc1C[C@@H](C)C(=O)N1CCN(c2ccc(C)cc2[C@@H](N)CC(C)C)CC1 |
| 26 | CC(C)C[C@H](N)c1cc(C(F)(F)F)ccc1N1CCN(C(=O)[C@H](C)Cc2ccc(Cl)cc2Cl)CC1 |
| 92 | Cc1ccc(CC(C)C(=O)N2CCN(c3ccc(C(F)(F)F)cc3[C@@H](N)CC(C)C)CC2)c(C)c1 (stereo not given in full) |

From ChEMBL document CHEMBL1149357, “Propionylpiperazines as human melanocortin-4 receptor ligands” (Bioorg Med Chem Lett, 2006)
